From patent US9687529B2, “Method of controlling coagulation” (Duke University, priority 2011, dated 2017) come the findings set out here.

The subject of data set [1] is clot formation in whole blood. Put plainly: Thromboelastography (TEG), whole blood stimulated with kaolin. Format: cell-based, human. As for the experimental part:
(§1) Blood was drawn from healthy, consented volunteers under a Duke University Institutional Review Board approved protocol and anticoagulated with 3.2% sodium citrate. Whole blood (320 μL) was mixed with anticoagulant (heparin or aptamers) (10 μL) and kaolin (Haemonetics, Niles, Ill.) (10 μL) or CAT PRP reagent (Diagnostica Stago, 0.33 ρM TF final) (10 μL) was added to stimulate clotting. CaCl2 (20 μL) was immediately added to overcome the citrate, the mixture was added to a plain disposable plastic TEG cup (Haemonetics), and the assay was run according to the manufacturer's instructions. Clot formation at 37° C. was measured with a Thromboelastograph Analyzer (Haemonetics, Niles, Ill.) until a stable clot was formed (i.e., a maximum amplitude was reached) or for three hours with the aptamer combinations. The time lag time, α-angle, and maximum amplitude were automatically calculated by the TEG® Analytical Software version 4.2.3 (Haemonetics).
Although the aPTT, PT, and CAT assays provide basic information about dose-dependent anticoagulation, these assays are performed in an environment that lacks platelets. Platelets play a crucial role in clot formation by providing a membrane surface upon which the clotting factors assemble, by aggregating and becoming physically incorporated into the blood clot, and by releasing internal stores of agonists that amplify coagulation (Monroe et al, Arterioscler Thromb Vasc Biol 22:138 1-9 (2002)). Therefore, a study was made of aptamer anticoagulation with thromboelastography (TEG), which provides real-time information about the kinetics of clot formation in whole blood (Reikvam et al, Transfus Apher Sci; 40:119-23 (2009). The TEG assay uses mechanical motion to quantify the physical properties of clot formation, including the lag time (the time until clot formation), the α-angle (the rate of clot formation), and the maximum amplitude (the mechanical strength of the clot formed).

Data set [2] concerns clot formation in whole blood. Nature of the data set: Thromboelastography (TEG), whole blood stimulated with tissue factor. Format: cell-based, human. As for the experimental part: as §1
Because kaolin stimulates blood via the intrinsic pathway, it is unlikely that 7S-1 (FVIIa aptamer) would impair clot formation with this type of stimulation; thus, this aptamer was tested in a modified TEG with TF stimulation. CAT platelet rich plasma (PRP) reagent (TF) was diluted to a final concentration of 0.33 ρM TF to stimulate clotting.

The subject of another data set is human blood. Nature of the data set: Ex vivo extracorporeal oxygenator minicircuit with ACT+ monitoring. The note with it: human blood in ex vivo minicircuit; average donor baseline 115 seconds; FIG. 25 doses: UFH 5 U/mL, 9.3T 1 μM, 11F7T 2 μM, R9D-14T 5 μM, 11F7T 0.5 μM+R9D-14T 5 μM. On the procedure: The extracorporeal minicircuit consisted of a sample line, custom-designed 8 mL Plexiglas® venous reservoir, a mechanical roller pump (MasterFlex®; Cole-Parmer Instrument Co., Vernon Hills, Ill.), and a custom-designed small-volume oxygenator that are all connected by MasterFlex precision silicone tubing (Cole-Parmer Instrument Co.) (de Lange et al, Br J Anaesth 99:177-83 (2007), de Lange et al, J Cardiothorac Surg 3:51 (2008). The 4 mL priming volume oxygenator is comprised of two Plexiglas® shells (12.8 cm×12.8 cm×2.7 cm) that cover a disposable three layer artificial diffusion membrane comprised of hollow polypropylene fibers glued together in a crosswise fashion. The surface area available for gas exchange is 558 cm^2. To prevent heat loss, one of the shells has an integrated heat exchanger, and the temperature was maintained at approximately 33° C. with a circulating water bath system (Gaymar Industries, Orchard Park, N.Y.). A MEAS reusable temperature probe (Model 451, Measurement Specialties Inc., Dayton, Ohio) was inserted into the reservoir to continuously measure the temperature, and an in-line flow probe (2N806 flow probe and T208 volume flowmeter; Transonics Systems, Inc., Ithaca, N.Y.) was used to continuously measure the blood flow. The circuit blood O2 level was maintained at 95% and the CO2 was maintained at 5%.
The minicircuit was primed with phosphate buffered saline (PBS) at a flow rate of 50 mL/min for approximately 30 min. Blood was drawn from healthy, consented volunteers and anticoagulated with 3.2% sodium citrate. Approximately 25 mL of citrated blood was incubated with 500 μL of anticoagulant (i.e., UFH or aptamer) at 37° C. for 5 min. The PBS was drained from the minicircuit, and the blood was added and circulated at a rate of 50 mL/min with 95% O2/5% CO2 at approximately 33° C. […] The venous blood gases were analyzed with a GEM Premier 3000 blood gas/electrolyte analyzer (model 5700; Instrumentation Laboratories, Inc, Lexington, Mass.) to determine the hematocrit, CaCl2, O2, and CO2 levels. […]

Values joined by “and” are separate entries in the source; they are usually repeats but may differ in a detail not shown here. Identical values can stand only once.

For “R9D-14T: prothrombin/thrombin aptamer, 58-base truncation of RNA9D-14, SEQ ID NO: 3 (GGCGGTCGATCACACAGTTCAAACGTAATAAGCCAATGTACGAGGCAGACGACTCGCC; 2'-fluoro at CT, RNA at AG, backbone and T or U not given here) [Aptamer R9D-14T]”, the Angle in data set [1] (RNA 1.25 μM) was 60.4 ± 2.4 deg; in data set [1] (RNA 2.0 μM) it was 48.1 ± 9.7 deg; in data set [1] (RNA 5.0 μM) it was 30 deg and 30.0 ± 5.7 deg; in data set [2] (RNA 5.00 μM), 15.2 deg and 15.2 ± 2.5 deg. Moreover, the Lag-time in data set [1] (RNA 1.25 μM) was 7.1 ± 1.4 min; in data set [1] (RNA 2.0 μM), 8.3 ± 2.0 min; in data set [1] (RNA 5.0 μM), 21.5 min and 21.5 ± 4.9 min; in data set [2] (RNA 5.00 μM), 39.4 min and 39.4 ± 5.0 min. In addition, the “Max. Amplitude” value in data set [1] (RNA 1.25 μM) was 62.0 ± 3.0 mm; in data set [1] (RNA 2.0 μM) it was 56.0 ± 6.3 mm; in data set [1] (RNA 5.0 μM), 49.6 mm and 49.6 ± 3.6 mm; in data set [2] (RNA 5.00 μM), 36.8 mm and 36.8 ± 1.4 mm. In addition, in the data set with human blood, the “ACT+ maximal clotting time” value came to 365 s.
On to “11F7T: FXa aptamer, 2'-fluoropyrimidine modified RNA, SEQ ID NO: 2 (GAGAGCCCCAGCGAGAUAAUACUUGGCCCCGCUCUU; 2'-fluoro at CU, RNA at AG, backbone not given here) [Aptamer 11F7T]”, for which the Angle was 40.3 ± 1.4 deg in data set [1] (RNA 0.5 μM); 28.7 ± 5.0 deg in data set [1] (RNA 1.0 μM); 18 deg and 18.0 ± 5.9 deg in data set [1] (RNA 2.0 μM); 21.4 deg and 21.4 ± 7.3 deg in data set [2] (RNA 2.00 μM). Moreover, the Lag-time in data set [1] (RNA 0.5 μM) was 15.6 ± 0.8 min; in data set [1] (RNA 1.0 μM), 20.6 ± 3.0 min; in data set [1] (RNA 2.0 μM) it was 39.6 min and 39.6 ± 9.1 min; in data set [2] (RNA 2.00 μM), 51.1 min and 51.1 ± 12.2 min. The “Max. Amplitude” value in data set [1] (RNA 0.5 μM) was 52.4 ± 1.6 mm; in data set [1] (RNA 1.0 μM) it was 48.2 ± 3.7 mm; in data set [1] (RNA 2.0 μM), 39.6 mm and 39.6 ± 4.4 mm; in data set [2] (RNA 2.00 μM) it was 51.1 mm and 51.1 ± 1.6 mm. Besides, the “ACT+ maximal clotting time” value in the data set with human blood worked out at 213 s.
For the substance “9.3T: FIXa aptamer, 2'-fluoropyrimidine modified RNA, SEQ ID NO: 1 (AUGGGGACUAUACCGCGUAAUGCUGCCUCCCCAU; 2'-fluoro at CU, RNA at AG, backbone not given here) [Aptamer 9.3T]”, the Angle was 41.4 ± 0.5 deg in data set [1] (RNA 0.5 μM); 37.6 deg and 37.6 ± 7.1 deg in data set [1] (RNA 1.0 μM); 36.9 ± 2.9 deg in data set [1] (RNA 2.0 μM); 66.3 deg and 66.3 ± 1.3 deg in data set [2] (RNA 1.00 μM). Besides, the Lag-time in data set [1] (RNA 0.5 μM) is 22.8 ± 2.0 min; in data set [1] (RNA 1.0 μM), 25.5 min and 25.5 ± 1.8 min; in data set [1] (RNA 2.0 μM), 29.9 ± 1.4 min; in data set [2] (RNA 1.00 μM) it was 4.5 min and 4.5 ± 0.5 min. For the same substance, the “Max. Amplitude” value in data set [1] (RNA 0.5 μM) was 55.4 ± 3.2 mm; in data set [1] (RNA 1.0 μM), 55.4 mm and 55.4 ± 2.6 mm; in data set [1] (RNA 2.0 μM) it was 55.9 ± 3.4 mm; in data set [2] (RNA 1.00 μM), 69.1 mm and 69.1 ± 1.5 mm. In addition, in the data set on human blood, the “ACT+ maximal clotting time” value is recorded as “had no effect”.
